Data from ChEMBL document CHEMBL1148138, “New eremophilenolides from Ligulariopsis shichuana” (2002).

Columns and labels:
Bacillus subtilis = experiment: Antibacterial activity against Bacillus subtilis at 100 ug/mL after 24 hrs by cup-plate method; assay type: functional; details: read-out: Diameter of inhibition zone
Escherichia coli = experiment: Antibacterial activity against Escherichia coli at 100 ug/mL after 24 hrs by cup-plate method; assay type: functional; details: read-out: Diameter of inhibition zone

SMILES | zone of inhibition at 100 µg/mL (Bacillus subtilis) [mm] | zone of inhibition at 100 µg/mL (Escherichia coli) [mm]
O=C(N[C@H](CO)[C@H](O)c1ccc([N+](=O)[O-])cc1)C(Cl)Cl [CHLORAMPHENICOL] | 16 | 16
CC(C)=CC(=O)O[C@H]1C[C@H]2O[C@]23C[C@@]2(O)OC(=O)C(C)=C2C[C@]3(C)[C@H]1C | 16 | 13
C/C=C(/C)C(=O)O[C@@H]1[C@@]23O[C@@H]2C[C@H](OC(C)=O)[C@H](C)[C@@]3(C)CC2=C(C)C(=O)O[C@@]21O | 13 | 13
